Experimental data as given in patent US8053627B2, “Methods for treating demyelination disorders” (University of Chicago, priority 2005, dated 2011).
Where “and” joins values, the source holds several entries; their conditions need not be identical. Identical values can stand only once. Like-named read-outs stand apart in the source and are kept apart here.

Legend:
BIP, CHOP, p-eIF-2α = test: ER stress markers in corpus callosum during remyelination (real time PCR, Western blot); type: in vivo; conditions: DOX− mice
Method: Repression of remyelination by IFN-γ is associated with ER stress. […] To determine whether IFN-γ interferes with endoplasmic reticulum (ER) function in remyelinating oligodendrocytes, the expression of ER stress markers was monitored in the corpus callosum of mice expressing IFN-γ. The study was performed using the transgenic mice described in Example 1.
The level of mRNA encoding ER stress associated genes binding immunoglobulin protein/78 KDa glucose regulated protein (BIP/GRP78) and the CAATT enhancer-binding protein homologous protein/growth and DNA damage protein 153 (CHOP/GADD153), was determined using real time PCR, as described in Example 1 in the corpus callosum of the cuprizone treated mice of Example 1. The probes, sense and antisense primers that were used were: […]
The level of phosphorylated eIF-2α, which inhibits nucleotide exchange on the eIF-2 complex and attenuates most protein synthesis, was analyzed by Western blot, and the expression was colocalized by immunostaining CC1 antibodies as described above. Western blot analysis was performed as follows. The corpus callosum from 3 mice was rinsed in ice cold phosphate-buffered saline (PBS) and pooled, and immediately homogenized in 5 volumes of Triton X-100 buffer (20 mM HEPES pH 7.5, 150 mM NaCl, 1% Triton X-100, 10% glycerol, 1 mM EDTA, 10 mM tetrasodium pyrophosphate, 100 mM NaF, 17.5 mM β-glycerophosphate, 10 mM phenylmethylsulfonyl fluoride, 15 μg/ml aprotonin, and 6 μg/ml pepstatin A) using a motorized homogenizer. After incubation on ice for 15 min, the extracts were cleared by centrifugation at 14,000 rpm twice for 30 min each. The protein content of each extract was […] by protein assay (Bio-Rad). The extracts (40 μg) were separated by sodium dodecyl sulfate-polyacrylamide gel electrophoresis and transferred to nitrocellulose. […] The following primary antibodies were used: anti-eIF-2α (1:500; Santa Cruz, Santa Cruz, Calif.), anti-p-eIF-2α (1:1000, Cell signaling Technology), anti-CHOP (1:500; Santa Cruz) and anti-actin (1:1000; Sigma, St Louis, Mo.).

[1] = test system: EAE-induced demyelination; conditions: for Mean of maximum clinical score (mean ± S.D.): 0–5 point scale; for Day of onset of disease (PID: postimmunization day): n = 25; for CD3 T cell infiltration in the lumbar spinal cord / EAE-induced demyelination: myelin, axons and oligodendrocytes in the lumbar spinal cord: PID 17
[2] = PERK+/+ background, listed as INF-γ
[3] = PERK+/+ background, peak of disease

For “IFN-γ: pleotropic cytokine secreted by activated T lymphocytes and natural killer cells; delivered to the CNS by transgene or added as recombinant protein”, the “BIP mRNA increase vs control DOX+” value (BIP, CHOP, p-eIF-2α) was “approximately 2 fold”, the “CHOP mRNA increase vs control DOX+” value (BIP, CHOP, p-eIF-2α) was “approximately 2 fold” and the “CHOP protein elevation (Western blot)” value (BIP, CHOP, p-eIF-2α) was “approximately 1.7 fold”. The “phosphorylated eIF-2α elevation (Western blot)” value (BIP, CHOP, p-eIF-2α) was “approximately 1.8 fold”, the Incidence of death ([1]; DOX− double mice) was 0/25 and the “Mean of maximum clinical score (mean ± S.D.)” value ([1]; DOX− double mice) was 1.63 ± 0.51. For the same substance, the “MBP mRNA in the spinal cord vs age-matched naïve mice” value ([1]; DOX− double mice, PID17) was “not significantly decreased”, the “Day of onset of disease (PID: postimmunization day)” value ([1]; DOX− double mice) was 14.7 ± 1.4 and the “Incidence of hind limb paralysis” value ([1]; DOX− double mice, listed as INF-γ) was 2 of 25 and 2/25. For the same substance, the Incidence of death ([1]; DOX− triple mice (PERK+/−)) was 3/25, the “Incidence of hind limb paralysis” value ([1]; DOX− triple mice (PERK+/−)) was 18/25 and the “Mean of maximum clinical score (mean ± S.D.)” value ([1]; DOX− triple mice (PERK+/−)) was 2.71 ± 1.11. The “Day of onset of disease (PID: postimmunization day)” value ([1]; DOX− triple mice (PERK+/−)) was 13.6 ± 0.8, the “CD3 positive T cell infiltration in the spinal cord” value ([1]; EAE onset) was “did not significantly affect” and the “CD11b positive monocyte infiltration in the spinal cord” value ([1]; EAE onset) was “increased”. For the same substance, the “PERK-eIF2α pathway in oligodendrocytes (p-PERK, p-eIF2α colocalization with CC1)” value ([1]; EAE onset) was “markedly activated”, the “expression of iNOs, TNF-a, IL-2, IL-12 and IL-10 in the spinal cord (real time PCR)” value ([1]; EAE onset, PID14) was “strongly enhanced” and the “expression of iNOs, TNF-a, IL-2, IL-12 and IL-10 in the spinal cord (real time PCR)” value ([1]; EAE onset, PID14, listed as INF-γ) was “increased”. For the same substance, the “CD3 T cell infiltration in the lumbar spinal cord” value ([1]; PERK+/+ background) was “reduced”, the “EAE-induced demyelination: myelin, axons and oligodendrocytes in the lumbar spinal cord” value ([1]; PERK+/+ background) was “protected” and the “CD3 T cell infiltration in the lumbar spinal cord” value [1, 2] was “lower”. The “EAE-induced demyelination: myelin, axons and oligodendrocytes in the lumbar spinal cord” value [1, 2] was “remained almost intact”, the “expression of IL-2 in spinal cord” value [1, 3] was “decreased” and the “expression of IL-12 in spinal cord” value [1, 3] was “decreased”. For the same substance, the “expression of IL-23 in spinal cord” value [1, 3] was “decreased”, the “expression of IL-2 and IL-5 in the spinal cord (real time PCR)” value ([1]; PID14) was “did not affect” and the “amelioration of EAE” value ([1]; mice heterozygous for the PERK mutation) was “did not ameliorate”. The “CD11b positive monocyte infiltration” value ([1]; peak of disease) was “did not change”, the “expression of IL-5 in spinal cord” value ([1]; peak of disease) was “did not significantly affect” and the “expression of IL-10 in spinal cord” value ([1]; peak of disease) was “did not significantly affect”. For the same substance, the “expression of iNOs or TNF-γ” value ([1]; peak of disease) was “did not significantly affect”.
